In patent US9873693B2 (Sunesis Pharmaceuticals, Inc., priority 2006, dated 2018) one finds IC50 and EC50 data, which are given here for 19 compounds.

In assay [1] the target is phosphorylated PDK1 (Homo sapiens (Human), UniProt O15530). In words: PDK1 kinase assay (coupled PDK1/AKT/FAM-crosstide, IMAP). The assay is classed as biochemical. The note with it: 0.5 nM phosphorylated PDK1, 24 μM ATP; read-out: Inhibition of phospo-PDK1 in vitro IC50.
Assay [2] has as its system phospho-akt (Thr308). Kind of assay: phospho-akt (Thr308) MSD ELISA in PC-3 cells. In kind it is cell-based. The note with it: Homo sapiens, PC-3, 2 h; for pEC50: read-out: Inhibition of P308 Akt in cells using MSD EC50; for EC50: read-out: Reduction of Cellular Levels of Akt p308 By MSD ELISA (EC50 μM). As for the experimental part: PC-3 cells were harvested by trypsin and counted. Cells were plated in coated 96-well flat bottom plates (plate 15,000 cells/well in 100 ul growth media (10% FBS, 1× pen-strep) an place in an incubator overnight.
Subject inhibitors were stocked at 50 mM, then diluted to 30 mM (4.8 μl cpd plus […] DMSO) in 100% DMSO. Three-fold dilutions were performed from 30 mM stock. (4 μl into 8 ul 100% DMSO). Aliquots of 1.0 μl of inhibitor solution were transferred into SF Medium (using deep well block).
Control wells were prepared as follows. For DMSO high controls, 1.0 μl of 100% DMSO was added into 1.0 ml SF.
MSD plates were blocked for 1 hour by adding 150 μl of Blocking Solution (3% BSA) to each well. The MSD plates were washed 4× with TBST, and 50 μl lysates were transferred to MSD plate and place on plate shaker shake at 4 degrees O/N, light shaking (speed 3.5). The plate was washed 4× with TBST.
25 μl of Ab detection solution was added to each well. The plate was sealed and incubated 1 hr RT, light shaking (speed 3.5). The plate was washed 4 times with TBST. 150 μl of Read Buffer was added (5 mls 4×MSD Read Buffer+15 mls water). Finally the plate was read immediately on the MSD plate reader.
(An ELISA detects its analyte on a solid surface through an enzyme-linked reagent.)

pEC50, pIC50: −log10 of the molar value. Where two headings read alike, the source gives them in different places.

phosphorylated PDK1, sequence (O15530 51-360): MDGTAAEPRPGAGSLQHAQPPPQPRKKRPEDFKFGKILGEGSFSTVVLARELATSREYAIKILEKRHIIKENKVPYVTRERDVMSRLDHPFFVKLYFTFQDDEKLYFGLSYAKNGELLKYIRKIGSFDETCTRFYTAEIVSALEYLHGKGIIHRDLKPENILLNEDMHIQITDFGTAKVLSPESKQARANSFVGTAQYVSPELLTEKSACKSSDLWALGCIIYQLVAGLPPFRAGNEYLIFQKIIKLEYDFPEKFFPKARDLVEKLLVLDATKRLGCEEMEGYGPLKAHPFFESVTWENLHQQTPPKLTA

Broadly, the pIC50 is the IC50 on a negative log10 scale, so that one unit is a factor of ten. A word on the pEC50: it is the negative decadic logarithm of the EC50, by convention in mol/L. With `O=C(NCc1cccc(-c2c[nH]c3ncc(-c4ccsc4)cc23)c1)c1cccn(Cc2ccc(F)c(F)c2)c1=O` [Cpd 331], the negative-log IC50 (pIC50) in assay [1] is more than 6.30. Moreover, the pEC50 in assay [2] (PC-3 cells, 2 hours, no serum) was 5.30 to 6.00.

As to `O=C(NCc1cc(-c2c[nH]c3ncccc23)c[n+]([O-])c1)c1cccn(Cc2ccc(F)c(F)c2)c1=O` [Cpd 165], in assay [1], the negative-log IC50 (pIC50) is more than 6.30. The pEC50 in assay [2] (PC-3 cells, 2 hours, no serum) was less than 5.30.

Regarding `O=C1Nc2cc(/C=C/CNC(=O)c3cccn(Cc4ccc(F)c(F)c4)c3=O)ccc2/C1=C\c1cccnc1` [Cpd 200], in assay [1], the negative logarithm of the IC50 (pIC50) was more than 6.30. In assay [2] (PC-3 cells, 2 hours, no serum), the negative-log EC50 (pEC50) is 5.30 to 6.00.

Consider `O=C(NCc1noc(-c2c[nH]c3ncccc23)n1)c1cc([N+](=O)[O-])cn(Cc2cc(F)c(F)c(F)c2)c1=O` [Cpd 184], for which the negative-log IC50 (pIC50) in assay [1] is more than 6.30. Moreover, in assay [2] (PC-3 cells, 2 hours, no serum), the pEC50 was 5.30 to 6.00.

Consider `O=C(N[C@@H](COc1ccc2[nH]c(=O)[nH]c2c1)c1cccs1)c1cccn(Cc2ccc(F)c(F)c2)c1=O` [Cpd 192], for which the pIC50 in assay [1] was more than 6.30. Besides, the negative-log EC50 (pEC50) in assay [2] (PC-3 cells, 2 hours, no serum) was more than 6.00.

Turning to `O=C(N[C@@H](COc1ccc2[nH]c(=O)[nH]c2c1)c1ccsc1)c1cccn(Cc2ccc(F)c(F)c2)c1=O` [Cpd 190], the pIC50 in assay [1] was more than 6.30. In addition, the pEC50 in assay [2] (PC-3 cells, 2 hours, no serum) is more than 6.00.

As usually defined, the EC50 is the concentration that produces a half-maximal response. As for `C[Si](C)(C)CCOCn1nc(NC(=O)c2cccn(Cc3ccc(F)c(F)c3)c2=O)c2cc(-c3c[nH]c4ncccc34)ccc21` [Cpd 36], in assay [1], the pIC50 is more than 6.30. Also, in assay [2], the pEC50 was less than 5.30 and the EC50 is more than 5 µM.

Regarding `CN(C)C(=O)c1cnc2[nH]cc(-c3cccc(CNC(=O)c4cccn(Cc5ccc(F)c(F)c5)c4=O)c3)c2c1` [Cpd 27], the negative-log IC50 (pIC50) in assay [1] is more than 6.30. Further, in assay [2] (PC-3 cells, 2 hours, no serum), the pEC50 was more than 6.00 and the concentration giving a half-maximal response (EC50) was less than 1 µM.

As to `O=C(NCc1cc(-c2c[nH]c3ncccc23)ccn1)c1cccn(Cc2ccc(F)c(F)c2)c1=O` [Cpd 164], in assay [1], the negative-log IC50 (pIC50) is more than 6.30. Further, the pEC50 in assay [2] (PC-3 cells, 2 hours, no serum) was more than 6.00.

Take `CNC(=O)c1cnc2[nH]cc(-c3cccc(CNC(=O)c4cccn(Cc5ccc(F)c(F)c5)c4=O)c3)c2c1` [Cpd 239]: the pIC50 in assay [1] is more than 6.30. In addition, in assay [2] (PC-3 cells, 2 hours, no serum), the negative logarithm of the EC50 (pEC50) is 5.30 to 6.00 and the half-maximal effective concentration (EC50) is less than 1 µM.

Turning to `CCCNC(=O)c1cnc2[nH]cc(-c3cccc(CNC(=O)c4cccn(Cc5ccc(F)c(F)c5)c4=O)c3)c2c1` [Cpd 29], in assay [1], the pIC50 is more than 6.30. Also, in assay [2] (PC-3 cells, 2 hours, no serum), the pEC50 is more than 6.00 and the EC50 is less than 1 µM.

For `N#Cc1cc(-c2c[nH]c3ncccc23)cc(CNC(=O)c2cccn(Cc3ccc(F)c(F)c3)c2=O)n1` [Cpd 191], in assay [1], the negative-log IC50 (pIC50) was more than 6.30. For the same compound, the pEC50 in assay [2] is more than 6.00.

With `O=C(NCc1ccnc(-c2c[nH]c3ncccc23)c1)c1cccn(Cc2ccc(F)c(F)c2)c1=O` [Cpd 285], the negative-log IC50 (pIC50) in assay [1] is more than 6.30. Besides, in assay [2] (PC-3 cells, 2 hours, no serum), the pEC50 was 5.30 to 6.00 and the 50% effective concentration (EC50) lay within 1 to 5 µM.

In the case of `O=C(NCc1cccc(-c2c[nH]c3ncc(-c4cccnc4)cc23)c1)c1cccn(Cc2ccc(F)c(F)c2)c1=O` [Cpd 47], in assay [1], the negative-log IC50 (pIC50) was more than 6.30. In assay [2] (PC-3 cells, 2 hours, no serum), the pEC50 is more than 6.00.

For `NCc1cnc2[nH]cc(-c3cccc(CNC(=O)c4cccn(Cc5ccc(F)c(F)c5)c4=O)c3)c2c1` [Cpd 243], the negative-log IC50 (pIC50) in assay [1] was more than 6.30. In addition, in assay [2] (PC-3 cells, 2 hours, no serum), the negative-log EC50 (pEC50) was more than 6.00 and the 50% effective concentration (EC50) fell in the range of 1 to 5 µM.

Regarding `CC(C)/C=C1/C(=O)Nc2cc(/C=C/CNC(=O)c3cccn(Cc4cc(F)c(F)c(F)c4)c3=O)ccc21` [Cpd 205], in assay [1], the pIC50 was more than 6.30. The pEC50 in assay [2] (PC-3 cells, 2 hours, no serum) was less than 5.30.

On to `CNC(=O)c1cnc2[nH]cc(-c3ccc(CNC(=O)c4cccn(Cc5ccc(F)c(F)c5)c4=O)s3)c2c1` [Cpd 40], for which the negative logarithm of the IC50 (pIC50) in assay [1] was more than 6.30. For the same compound, in assay [2] (PC-3 cells, 2 hours, no serum), the pEC50 is 5.30 to 6.00 and the EC50 was in the range of 1 to 5 µM.

Consider `CC(C)=C1C(=O)Nc2cc(/C=C/CNC(=O)c3cccn(Cc4cc(F)c(F)c(F)c4)c3=O)ccc21` [Cpd 204], for which the pIC50 in assay [1] is more than 6.30. Moreover, in assay [2] (PC-3 cells, 2 hours, no serum), the pEC50 was 5.30 to 6.00.

On to `NC(=O)c1cnc2[nH]cc(-c3ccc(CNC(=O)c4cccn(Cc5ccc(F)c(F)c5)c4=O)s3)c2c1` [Cpd 39], for which the negative logarithm of the IC50 (pIC50) in assay [1] is more than 6.30. Moreover, in assay [2] (PC-3 cells, 2 hours, no serum), the negative logarithm of the EC50 (pEC50) was more than 6.00 and the EC50 is less than 1 µM.
